From PMC5218480 (PLoS ONE, 2017)

Tested on: MV-4-11 cells
Assay: Gene expression microarray analysis (Affymetrix PrimeView) and GSEA
Format: cell-based, human
Design: RFU PODN (11730768_x_at) / Fold change /veh PODN (11730768_x_at) / RFU LINC00158 (11744669_a_at) / Fold change /veh LINC00158 (11744669_a_at) / RFU DUSP10 (11751237_a_at) / Fold change /veh DUSP10 (11751237_a_at) / RFU ID3 (11757404_x_at) / Fold change /veh ID3 (11757404_x_at) / RFU PLEKHG5 (11737974_s_at) / Fold change /veh PLEKHG5 (11737974_s_at) / RFU LRRC4B (11730491_at) / Fold change /veh LRRC4B (11730491_at) / RFU GIMAP4 (11747438_a_at) / Fold change /veh GIMAP4 (11747438_a_at) / RFU KRT8 (11758183_x_at) / Fold change /veh KRT8 (11758183_x_at) / RFU CNN1 (11734310_a_at) / Fold change /veh CNN1 (11734310_a_at) / RFU VPS37D (11726825_at) / Fold change /veh VPS37D (11726825_at) / RFU C10orf10 (11716522_x_at) / Fold change /veh C10orf10 (11716522_x_at) / RFU KIR2DL2 /// KIR2DL4 /// KIR2DL5A /// KIR2DL5B /// KIR2DS1 /// KIR2DS2 /// KIR2DS3 /// KIR2DS4 /// KIR3DL3 /// KIR3DL3 /// KIR3DS1 (11738374_at) / Fold change /veh KIR2DL2 /// KIR2DL4 /// KIR2DL5A /// KIR2DL5B /// KIR2DS1 /// KIR2DS2 /// KIR2DS3 /// KIR2DS4 /// KIR3DL3 /// KIR3DL3 /// KIR3DS1 (11738374_at) / RFU C1QL1 (11718748_at) / Fold change /veh C1QL1 (11718748_at) / RFU TMPRSS4 (11747572_a_at) / Fold change /veh TMPRSS4 (11747572_a_at) / RFU HAMP (11756126_x_at) / Fold change /veh HAMP (11756126_x_at) / RFU RNFT2 (11725882_a_at) / Fold change /veh RNFT2 (11725882_a_at) / RFU NR4A2 (11747474_a_at) / Fold change /veh NR4A2 (11747474_a_at) / RFU ABCC12 (11746883_a_at) / Fold change /veh ABCC12 (11746883_a_at) / RFU TMEM136 (11760407_x_at) / Fold change /veh TMEM136 (11760407_x_at) / RFU CLDN22 /// WWC2 (11732394_at) / Fold change /veh CLDN22 /// WWC2 (11732394_at) / RFU HLA-DPB1 (11760878_x_at) / Fold change /veh HLA-DPB1 (11760878_x_at) / RFU SPINT1 (11716480_a_at) / Fold change /veh SPINT1 (11716480_a_at) / RFU GAP43 (11754022_s_at) / Fold change /veh GAP43 (11754022_s_at) / RFU A4GNT (11735810_at) / Fold change /veh A4GNT (11735810_at) / RFU PRB3 (11715151_x_at) / Fold change /veh PRB3 (11715151_x_at) / RFU TUBB4B (11761932_at) / Fold change /veh TUBB4B (11761932_at) / RFU CAPN14 (11732068_a_at) / Fold change /veh CAPN14 (11732068_a_at) / RFU TMCC2 (11721928_a_at) / Fold change /veh TMCC2 (11721928_a_at) / RFU IRGQ (11745062_a_at) / Fold change /veh IRGQ (11745062_a_at) / RFU FAM174B (11720279_a_at) / Fold change /veh FAM174B (11720279_a_at) / RFU TMPRSS4 (11748680_a_at) / Fold change /veh TMPRSS4 (11748680_a_at) / RFU FAM212B (11763350_a_at) / Fold change /veh FAM212B (11763350_a_at) / RFU PLEKHG5 (11743358_a_at) / Fold change /veh PLEKHG5 (11743358_a_at) / RFU ZSCAN30 (11745921_a_at) / Fold change /veh ZSCAN30 (11745921_a_at) / RFU CMKLR1 (11741424_a_at) / Fold change /veh CMKLR1 (11741424_a_at) / RFU LOC101060620 /// MAPK8IP1 (11723275_at) / Fold change /veh LOC101060620 /// MAPK8IP1 (11723275_at) / RFU SPTSSB (11747773_x_at) / Fold change /veh SPTSSB (11747773_x_at) / RFU PRSS12 (11739890_at) / Fold change /veh PRSS12 (11739890_at) / RFU BIN1 (11741810_x_at) / Fold change /veh BIN1 (11741810_x_at) / RFU WNT11 (11732464_a_at) / Fold change /veh WNT11 (11732464_a_at) / RFU C10orf10 (11716521_a_at) / Fold change /veh C10orf10 (11716521_a_at) / RFU C5orf56 (11738089_at) / Fold change /veh C5orf56 (11738089_at) / RFU CYB561 (11721691_x_at) / Fold change /veh CYB561 (11721691_x_at) / RFU ANKRD19P (11752326_a_at) / Fold change /veh ANKRD19P (11752326_a_at) / RFU OR2T12 /// OR2T33 /// OR2T8 (11738714_s_at) / Fold change /veh OR2T12 /// OR2T33 /// OR2T8 (11738714_s_at) / RFU VCAN (11748164_a_at) / Fold change /veh VCAN (11748164_a_at) / RFU JSRP1 (11732532_at) / Fold change /veh JSRP1 (11732532_at) / RFU KRTAP10-11 (11738290_x_at) / Fold change /veh KRTAP10-11 (11738290_x_at) / RFU MYO3A (11730013_a_at) / Fold change /veh MYO3A (11730013_a_at) / RFU EBF3 (11725865_a_at) / Fold change /veh EBF3 (11725865_a_at) / RFU CAMK2N1 (11719241_x_at) / Fold change /veh CAMK2N1 (11719241_x_at) / RFU C5orf56 (11738088_a_at) / Fold change /veh C5orf56 (11738088_a_at) / RFU OLFML3 (11715873_a_at) / Fold change /veh OLFML3 (11715873_a_at) / RFU LOC100653217 /// NTM (11731650_a_at) / Fold change /veh LOC100653217 /// NTM (11731650_a_at) / RFU MAPK11 (11762145_a_at) / Fold change /veh MAPK11 (11762145_a_at) / RFU FIZ1 (11724087_x_at) / Fold change /veh FIZ1 (11724087_x_at) / RFU OASL (11726364_x_at) / Fold change /veh OASL (11726364_x_at) / RFU SOX15 (11748057_x_at) / Fold change /veh SOX15 (11748057_x_at) / RFU CD79A (11719716_a_at) / Fold change /veh CD79A (11719716_a_at) / RFU HIST1H1D (11736915_at) / Fold change /veh HIST1H1D (11736915_at) / RFU CASKIN2 (11723855_a_at) / Fold change /veh CASKIN2 (11723855_a_at) / RFU LOC730098 (11760151_x_at) / Fold change /veh LOC730098 (11760151_x_at) / RFU OR4N2 (11742367_at) / Fold change /veh OR4N2 (11742367_at) / RFU PRRT2 (11749266_a_at) / Fold change /veh PRRT2 (11749266_a_at) / RFU SNX32 (11753110_a_at) / Fold change /veh SNX32 (11753110_a_at) / RFU CDHR5 (11726645_a_at) / Fold change /veh CDHR5 (11726645_a_at) / RFU RCAN1 (11760418_a_at) / Fold change /veh RCAN1 (11760418_a_at) / RFU FAM167A (11723789_a_at) / Fold change /veh FAM167A (11723789_a_at) / RFU FAM26E (11764081_at) / Fold change /veh FAM26E (11764081_at) / RFU ISYNA1 (11749810_s_at) / Fold change /veh ISYNA1 (11749810_s_at) / RFU ACY1 (11761880_at) / Fold change /veh ACY1 (11761880_at) / RFU 11764098_at / Fold change /veh 11764098_at / RFU SAMD14 (11745864_x_at) / Fold change /veh SAMD14 (11745864_x_at) / RFU NPB (11741838_a_at) / Fold change /veh NPB (11741838_a_at) / RFU TMPRSS6 (11731388_a_at) / Fold change /veh TMPRSS6 (11731388_a_at) / RFU KRTAP10-2 (11738614_at) / Fold change /veh KRTAP10-2 (11738614_at) / RFU ARHGAP8 /// PRR5-ARHGAP8 (11727945_x_at) / Fold change /veh ARHGAP8 /// PRR5-ARHGAP8 (11727945_x_at) / RFU KRTAP5-7 /// NADSYN1 (11734609_at) / Fold change /veh KRTAP5-7 /// NADSYN1 (11734609_at) / RFU RASL12 (11751679_a_at) / Fold change /veh RASL12 (11751679_a_at) / RFU CDKN2B (11736163_a_at) / Fold change /veh CDKN2B (11736163_a_at) / RFU PRF1 (11729649_at) / Fold change /veh PRF1 (11729649_at) / RFU, ZNF638 /// ZNF638-IT1 / Fold change vs veh, ZNF638 /// ZNF638-IT1 / RFU, PANK3 / Fold change vs veh, PANK3 / RFU, SH3YL1 / Fold change vs veh, SH3YL1 / RFU, ZEB2 / Fold change vs veh, ZEB2 / RFU, NRIP1 / Fold change vs veh, NRIP1 / RFU, PTTG1IP / Fold change vs veh, PTTG1IP / RFU, CAPN2 / Fold change vs veh, CAPN2 / RFU, MED14 / Fold change vs veh, MED14 / RFU, SNORA58 / Fold change vs veh, SNORA58 / RFU, C1orf63 / Fold change vs veh, C1orf63 / RFU, LRRFIP1 / Fold change vs veh, LRRFIP1 / RFU, NDUFAF7 / Fold change vs veh, NDUFAF7 / RFU, SLC12A2 / Fold change vs veh, SLC12A2 / RFU, IBTK / Fold change vs veh, IBTK / RFU, ESF1 / Fold change vs veh, ESF1 / Fold change vs veh, TMEM50B / RFU, TAOK1 / Fold change vs veh, TAOK1 / RFU, ACBD3 / Fold change vs veh, ACBD3 / RFU, TMA16 / Fold change vs veh, TMA16 / RFU, RWDD3 / Fold change vs veh, RWDD3 / RFU, BCAT1 / Fold change vs veh, BCAT1 / RFU, EDEM3 / Fold change vs veh, EDEM3 / RFU, TMEM33 / Fold change vs veh, TMEM33 / RFU, WDR75 / Fold change vs veh, WDR75 / RFU, AHCTF1 / Fold change vs veh, AHCTF1 / RFU, TFRC / Fold change vs veh, TFRC / RFU, ZDHHC17 / Fold change vs veh, ZDHHC17 / RFU, NOM1 / Fold change vs veh, NOM1 / RFU, ARL8B / Fold change vs veh, ARL8B / RFU, ZBTB11 / Fold change vs veh, ZBTB11 / RFU, TAMM41 / Fold change vs veh, TAMM41 / RFU, KIAA1704 /// LOC100996395 / Fold change vs veh, KIAA1704 /// LOC100996395 / RFU, ING1 / Fold change vs veh, ING1 / RFU, TRMT61B / Fold change vs veh, TRMT61B / RFU, FUBP3 / Fold change vs veh, FUBP3 / RFU, TP53 / Fold change vs veh, TP53 / RFU, TNKS2 / Fold change vs veh, TNKS2 / RFU, ZFP14 / Fold change vs veh, ZFP14 / RFU, ACTR2 / Fold change vs veh, ACTR2 / RFU, PPP3R1 / Fold change vs veh, PPP3R1 / RFU, PIK3R1 / Fold change vs veh, PIK3R1 / RFU, HNRNPA1 / Fold change vs veh, HNRNPA1 / RFU, RNF170 / Fold change vs veh, RNF170 / RFU, ZNF28 / Fold change vs veh, ZNF28 / RFU, RNGTT / Fold change vs veh, RNGTT / RFU, OGT / Fold change vs veh, OGT / RFU, BRD1 / Fold change vs veh, BRD1 / RFU, MARS / Fold change vs veh, MARS / RFU, ZNF655 / Fold change vs veh, ZNF655 / RFU, FAHD1 / Fold change vs veh, FAHD1 / RFU, BDP1 / Fold change vs veh, BDP1 / RFU, LRRCC1 / Fold change vs veh, LRRCC1 / RFU, ARID1A / Fold change vs veh, ARID1A / RFU, ZNF146 / Fold change vs veh, ZNF146 / RFU, ZNF330 / Fold change vs veh, ZNF330 / RFU, GPN3 / Fold change vs veh, GPN3 / RFU, C9orf123 / Fold change vs veh, C9orf123 / RFU, N4BP2L2 / Fold change vs veh, N4BP2L2 / RFU, ARFIP1 / Fold change vs veh, ARFIP1 / RFU, FAM179B / Fold change vs veh, FAM179B / RFU, BCL10 / Fold change vs veh, BCL10 / RFU, UHRF1BP1L / Fold change vs veh, UHRF1BP1L / RFU, BET1 / Fold change vs veh, BET1 / RFU, CNOT2 / Fold change vs veh, CNOT2 / RFU, ZNF268 / Fold change vs veh, ZNF268 / Fold change vs veh, ZNF507 / RFU, DGCR2 / Fold change vs veh, DGCR2 / RFU, WDSUB1 / Fold change vs veh, WDSUB1 / Fold change vs veh, HSP90B1 /// MIR3652 / RFU, ADSS / Fold change vs veh, ADSS / RFU, GK / Fold change vs veh, GK / RFU, ZNF148 / Fold change vs veh, ZNF148 / RFU, TAF9 / Fold change vs veh, TAF9 / RFU, SLC1A5 / Fold change vs veh, SLC1A5 / RFU, SLMO2 / Fold change vs veh, SLMO2 / RFU, ABCC4 / Fold change vs veh, ABCC4 / RFU, LOC101060439 /// RAP1B / Fold change vs veh, LOC101060439 /// RAP1B / RFU, RFX7 / Fold change vs veh, RFX7 / RFU, GTPBP10 / Fold change vs veh, GTPBP10 / RFU, CNEP1R1 / Fold change vs veh, CNEP1R1 / RFU, BIVM-ERCC5 /// ERCC5 / Fold change vs veh, BIVM-ERCC5 /// ERCC5 / RFU, ILF3 / Fold change vs veh, ILF3 / RFU 11762660_at / Fold change /veh 11762660_at / RFU VCAN (11757783_s_at) / Fold change /veh VCAN (11757783_s_at) / RFU DDX43 (11728927_at) / Fold change /veh DDX43 (11728927_at) / RFU KRT8 (11758188_x_at) / Fold change /veh KRT8 (11758188_x_at) / RFU NKD1 (11759106_at) / Fold change /veh NKD1 (11759106_at) / RFU SRD5A1 (11742802_a_at) / Fold change /veh SRD5A1 (11742802_a_at) / RFU TPSAB1 /// TPSB2 (11721975_s_at) / Fold change /veh TPSAB1 /// TPSB2 (11721975_s_at) / RFU GSTM3 (11746129_a_at) / Fold change /veh GSTM3 (11746129_a_at) / RFU IL23R (11737362_x_at) / Fold change /veh IL23R (11737362_x_at) / RFU TMEM51 (11727254_a_at) / Fold change /veh TMEM51 (11727254_a_at) / RFU PIWIL2 (11732686_x_at) / Fold change /veh PIWIL2 (11732686_x_at) / RFU ORM1 (11744905_x_at) / Fold change /veh ORM1 (11744905_x_at) / RFU CCDC152 (11743942_at) / Fold change /veh CCDC152 (11743942_at) / RFU ECM1 (11717891_a_at) / Fold change /veh ECM1 (11717891_a_at) / RFU IL23R (11748794_a_at) / Fold change /veh IL23R (11748794_a_at) / RFU TNFAIP8L3 (11732012_x_at) / Fold change /veh TNFAIP8L3 (11732012_x_at) / RFU MBOAT4 (11741988_at) / Fold change /veh MBOAT4 (11741988_at) / RFU 11764193_at / Fold change /veh 11764193_at / RFU TMEM53 (11763286_at) / Fold change /veh TMEM53 (11763286_at) / RFU MAGEB2 (11727129_at) / Fold change /veh MAGEB2 (11727129_at) / RFU TMEM200A (11744735_a_at) / Fold change /veh TMEM200A (11744735_a_at) / RFU CCDC152 (11751479_a_at) / Fold change /veh CCDC152 (11751479_a_at) / RFU FAM211A (11726209_a_at) / Fold change /veh FAM211A (11726209_a_at) / RFU RGS16 (11746705_a_at) / Fold change /veh RGS16 (11746705_a_at) / RFU VCAN (11755009_s_at) / Fold change /veh VCAN (11755009_s_at) / RFU RHOB (11743442_s_at) / Fold change /veh RHOB (11743442_s_at) / RFU RGS16 (11720943_a_at) / Fold change /veh RGS16 (11720943_a_at) / RFU RGS16 (11720944_at) / Fold change /veh RGS16 (11720944_at) / RFU, VPS4B / Fold change vs veh, VPS4B / RFU, CREB1 / Fold change vs veh, CREB1 / RFU, DNAJC13 / Fold change vs veh, DNAJC13 / RFU, GNAQ / Fold change vs veh, GNAQ / RFU, CDK5R1 / Fold change vs veh, CDK5R1 / RFU, ZRANB3 / Fold change vs veh, ZRANB3 / RFU, CUL4A / Fold change vs veh, CUL4A / RFU, CCNY / Fold change vs veh, CCNY / RFU, UFL1 / Fold change vs veh, UFL1 / RFU, COG3 / Fold change vs veh, COG3 / RFU, DIAPH2 / Fold change vs veh, DIAPH2 / RFU, SKA2 / Fold change vs veh, SKA2 / RFU, AFF3 / Fold change vs veh, AFF3 / RFU, LMF1 / Fold change vs veh, LMF1 / RFU, IPO11 / Fold change vs veh, IPO11 / RFU, DFFB / Fold change vs veh, DFFB / RFU, FOXP1 / Fold change vs veh, FOXP1 / RFU, CARD8 / Fold change vs veh, CARD8 / RFU, STRN3 / Fold change vs veh, STRN3 / RFU, ADK / Fold change vs veh, ADK / RFU, RASSF2 / Fold change vs veh, RASSF2 / RFU, WIPF1 / Fold change vs veh, WIPF1 / RFU, LARP1B / Fold change vs veh, LARP1B / RFU, RASA1 / Fold change vs veh, RASA1 / RFU, RB1 / Fold change vs veh, RB1 / RFU, PPFIA1 / Fold change vs veh, PPFIA1 / RFU, MAT2A / Fold change vs veh, MAT2A / RFU, CCT5 / Fold change vs veh, CCT5 / RFU, WDR92 / Fold change vs veh, WDR92 / RFU, CUX1 / Fold change vs veh, CUX1 / RFU, TTC7A / Fold change vs veh, TTC7A / RFU, TMEM135 / Fold change vs veh, TMEM135 / RFU, DEPTOR / Fold change vs veh, DEPTOR / RFU, CPM / Fold change vs veh, CPM / RFU, DNAJB6 / Fold change vs veh, DNAJB6 / RFU, CACNA2D3 / Fold change vs veh, CACNA2D3 / RFU, DTX4 / Fold change vs veh, DTX4 / RFU, TFCP2 / Fold change vs veh, TFCP2 / RFU, GMCL1 /// GMCL1P1 / Fold change vs veh, GMCL1 /// GMCL1P1 / RFU, AEBP2 / Fold change vs veh, AEBP2 / RFU, SNHG1 /// SNORD22 /// SNORD25 /// SNORD26 /// SNORD27 /// SNORD28 /// SNORD29 /// SNORD31 / Fold change vs veh, SNHG1 /// SNORD22 /// SNORD25 /// SNORD26 /// SNORD27 /// SNORD28 /// SNORD29 /// SNORD31 / Fold change (Aza/veh), C12orf56 (ProbeSet 11735607_a_at) / Fold change (ACY-1035/veh), C12orf56 (ProbeSet 11735607_a_at) / Fold change (Aza/veh), FGFR1OP (ProbeSet 11751329_s_at) / Fold change (ACY-1035/veh), FGFR1OP (ProbeSet 11751329_s_at) / Fold change (Aza/veh), VPS36 (ProbeSet 11739960_a_at) / Fold change (ACY-1035/veh), VPS36 (ProbeSet 11739960_a_at) / RFU SYPL1 (11715823_x_at) / Fold change /veh SYPL1 (11715823_x_at) / RFU IGFBP7 (11715501_s_at) / Fold change /veh IGFBP7 (11715501_s_at) / RFU REEP3 (11722064_at) / Fold change /veh REEP3 (11722064_at) / RFU IGLL1 (11728026_x_at) / Fold change /veh IGLL1 (11728026_x_at): dose or concentration left out as unconfirmed
Settings: ProbeSet 11745428_a_at; LIST D

Nc1ncn([C@@H]2O[C@H](CO)[C@@H](O)[C@H]2O)c(=O)n1 [azacitidine]
RFU, DFFB: 92.76 RFU
